Assay: Powder dissolution
Type: physicochemical
Details: compared to commercially available progesterone

Question: With “progesterone:vanillic acid [Cocrystal 1]” as the substance, how does the dissolution rate read?
Answer: The dissolution rate was “increase in dissolution rate”.

Question: What about the “progesterone concentration over time” value of the same substance?
Answer: The value was “sustained progesterone concentration over time”.

From patent US9982007B2, “Cocrystals of progesterone” (AMRI SSCI, LLC, priority 2012, dated 2018)
